Laboratory results as given in BindingDB's records for doi:10.1016/j.bmcl.2007.04.051 (Eli Lilly, 2007).

Assays:
Estrogen receptor beta = Estrogen receptor beta (Homo sapiens, UniProt Q92731); assay: Estrogen Receptor Binding Assay.; conditions: pH 7.5; 22 °C
Method: (§1) The binding affinities were determined by a competitive radiometric binding assay using [3H]estradiol as tracer. The Kd for 3H-estradiol was determined by saturation binding to ER receptors. The IC50 values for compounds were converted to Ki using Cheng-Prusoff equation.

Estrogen receptor = molecular target: T1, Estrogen receptor (Homo sapiens, UniProt P03372); assay: Estrogen Receptor Binding Assay.; conditions: pH 7.5; 22 °C
T1 sequence (P03372 whole entry): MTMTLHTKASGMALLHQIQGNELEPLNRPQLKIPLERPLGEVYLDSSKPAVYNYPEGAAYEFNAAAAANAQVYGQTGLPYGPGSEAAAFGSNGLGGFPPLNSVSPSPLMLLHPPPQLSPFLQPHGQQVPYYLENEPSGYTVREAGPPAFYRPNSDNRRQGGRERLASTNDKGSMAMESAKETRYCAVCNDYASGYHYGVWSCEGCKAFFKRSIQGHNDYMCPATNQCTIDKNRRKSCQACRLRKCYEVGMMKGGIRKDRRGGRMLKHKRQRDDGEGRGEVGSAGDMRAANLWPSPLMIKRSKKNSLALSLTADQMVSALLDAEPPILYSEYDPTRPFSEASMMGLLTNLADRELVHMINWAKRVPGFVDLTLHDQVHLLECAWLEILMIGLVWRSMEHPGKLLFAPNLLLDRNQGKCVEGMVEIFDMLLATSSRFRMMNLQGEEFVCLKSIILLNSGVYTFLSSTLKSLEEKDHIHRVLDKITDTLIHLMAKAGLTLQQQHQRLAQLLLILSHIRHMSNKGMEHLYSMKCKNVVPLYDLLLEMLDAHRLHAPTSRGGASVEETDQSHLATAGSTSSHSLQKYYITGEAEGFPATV
Method: as §1

Sequence of Estrogen receptor beta (Q92731 whole entry): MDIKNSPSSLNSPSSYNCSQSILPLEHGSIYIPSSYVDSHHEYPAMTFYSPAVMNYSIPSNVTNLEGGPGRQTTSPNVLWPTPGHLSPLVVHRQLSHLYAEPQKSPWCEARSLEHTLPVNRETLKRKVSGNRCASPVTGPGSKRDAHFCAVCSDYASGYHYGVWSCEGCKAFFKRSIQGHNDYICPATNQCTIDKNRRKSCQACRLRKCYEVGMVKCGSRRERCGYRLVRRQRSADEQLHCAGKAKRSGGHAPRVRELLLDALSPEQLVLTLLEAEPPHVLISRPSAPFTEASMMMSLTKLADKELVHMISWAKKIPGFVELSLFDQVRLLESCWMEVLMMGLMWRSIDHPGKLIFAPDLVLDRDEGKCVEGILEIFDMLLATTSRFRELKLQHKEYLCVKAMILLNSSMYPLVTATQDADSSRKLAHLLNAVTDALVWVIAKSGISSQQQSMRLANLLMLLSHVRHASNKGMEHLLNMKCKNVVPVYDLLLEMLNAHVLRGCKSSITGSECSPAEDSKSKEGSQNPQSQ

| Structure (SMILES) | Ki (Estrogen receptor beta) [nM] | Ki (Estrogen receptor) [nM] |
| --- | --- | --- |
| Oc1ccc([C@@H]2Oc3ccccc3[C@@H]3CCC[C@@H]32)cc1 (racemic) [4-[(2R,6S,7R)-8-oxatricyclo[7.4.0.0^{2,6}]trideca-1(9),10,12-trien-7-yl]phenol] | 22.1 | 40 |
| Oc1cccc([C@@H]2Oc3ccc(O)cc3[C@@H]3CCC[C@@H]32)c1 (racemic) [(2R,6S,7R)-7-(3-hydroxyphenyl)-8-oxatricyclo[7.4.0.0^{2,6}]trideca-1(9),10,12-trien-12-ol] |  | 65 |
| Oc1ccc([C@@H]2Oc3cc(O)ccc3[C@@H]3CCC[C@@H]32)cc1 [racemic mixture] | 18.9 | 41 |
| Oc1ccc([C@@H]2Oc3ccc(O)cc3[C@@H]3CCCCC[C@@H]32)cc1 [racemic mixture] | 0.88 | 6.11 |
| Oc1ccc([C@@H]2Oc3ccc(O)cc3[C@@H]3CCCC[C@@H]32)cc1 [racemic mixture] | 0.63 | 2.88 |
| Oc1ccc([C@@H]2Oc3cccc(O)c3[C@@H]3CCC[C@@H]32)cc1 [racemic mixture] | 0.66 | 0.35 |
| Oc1ccc2c(c1)[C@@H]1CCC[C@@H]1[C@H](c1ccccc1)O2 [racemic mixture] |  | 267 |
| Oc1ccc([C@@H]2CCc3cc(O)ccc3O2)cc1 [racemic mixture] |  | 126 |
